Results published in patent US6432959B1, “Inhibitors of farnesyl-protein transferase” (Schering Corporation, priority 1998, dated 2002).
Several values for one entry are separate records, joined by “and”; a condition that tells them apart may be missing. Identical values can stand only once.

Experiments:
[1] = target: T1, partially purified rat brain farnesyl protein transferase (FPT) (Rattus norvegicus, UniProt Q02293+Q04631); test: FPT IC50, in vitro enzyme assay (inhibition of Ras-CVLS farnesylation); type: biochemical; conditions: inhibition of Ras-CVLS farnesylation by partially purified rat brain FPT; value is a range stated for a group of compounds
T1 construct: partially purified rat brain farnesyl protein transferase (FPT); from tissue; host or cells: rat brain
Protocol: 1. In vitro enzyme assays: FPT IC50 (inhibition of farnesyl protein transferase, in vitro enzyme assay) are determined by the methods disclosed in WO/10515 or WO95/10516.

Compound	IC50 [1]	melting point [°C]
O=C(NCCc1cncn1Cc1ccc(Cl)cc1)[C@H]1CN(Cc2ccccc2)CCN1C(=O)NC1CCCCC1 [Example 28C, N4-phenylmethyl-N2-[2-[1-[(4-chlorophenyl)methyl]-1H-imidazol-5-yl]ethyl]-N1-cyclohexyl-1,2(R)-piperazinedicarboxamide]	0.18 to 21 nM	116.2
N#Cc1ccc(Cn2cncc2CCNC(=O)[C@H]2CN(Cc3ccccc3)CCN2C(=O)c2ccccc2)cc1 [Example 28G, 1-benzoyl-N-[2-[1-[(4-cyanophenyl)methyl]-1H-imidazol-5-yl]ethyl]-4-phenylmethyl-2(R)-piperazinedicarboxamide]	0.18 to 21 nM	115.3 to 170.3
N#Cc1ccc(Cn2cncc2CCNC(=O)[C@H]2CN(S(=O)(=O)c3ccccc3)CCN2C(=O)NC2CCCCC2)cc1 [Example 28R, N2-[2-[1-[(4-Cyanophenyl)methyl]-1H-imidazol-5-yl]ethyl]-N1-cyclohexyl-4-(phenylsulfonyl)-1,2(R)-piperazinedicarboxamide]	0.18 to 21 nM	143.6
O=C([C@H]1CN(Cc2ccccc2)CCN1C(=O)NC1CCCCC1)N(CCCn1ccnc1)Cc1ccccc1 [Example 28S, N1-cyclohexyl-N2-[3-(1H-imidazol-1-yl)propyl]-N2,4-bis(phenylmethyl)-1,2(R)-piperazinedicarboxamide]	0.18 to 21 nM	89.1
CC(C)(C)NC(=O)N1CCN(Cc2ccccc2)C[C@@H]1C(=O)N(CCCn1ccnc1)Cc1ccccc1 [Example 28T, N1-(1,1-dimethylethyl)-N2-[3-(1H-imidazol-1-yl)propyl]-N2,4-bis(phenylmethyl)-1,2(R)-piperazinedicarboxamide]	0.18 to 21 nM	57.8

The remaining lines, values ahead:

IC50 [1]	melting point [°C]	Compound
0.18 to 21 nM	85.6 to 96.7	N#Cc1ccc(Cn2cncc2CCNC(=O)[C@H]2CN(Cc3ccccc3)CCN2C(=O)Cc2ccccc2)cc1 [Example 28I, N-[2-[1-[(4-cyanophenyl)methyl]-1H-imidazol-5-yl]ethyl]-1-phenylacetyl-4-(phenylmethyl)-2(R)-piperazinedicarboxamide]
0.18 to 21 nM and 0.18 to 1.5 nM	97.8	CC(C)(C)NC(=O)N1CCN(Cc2ccccc2)C[C@@H]1C(=O)NCCc1cncn1Cc1ccc(C#N)cc1 [Example 28O, N2-[2-[1-[(4-cyanophenyl)methyl]-1H-imidazol-5-yl]ethyl]-N1-(1,1-dimethylethyl)-4-(phenylmethyl)-1,2(R)-piperazinedicarboxamide]
0.18 to 21 nM	118.5	N#Cc1ccc(Cn2cncc2CCNC(=O)[C@H]2CN(Cc3ccccc3)CCN2C(=O)CC2CCN(C(N)=O)CC2)cc1 [Example 28Q, 1-[[1-(aminocarbonyl)-4-piperidinyl]acetyl]-N-[2-[1-[(4-cyanophenyl)methyl]-1H-imidazol-5-yl]ethyl]-4-(phenylmethyl)-2(R)-piperazinecarboxamide]
